{"source": "patent US20240058323A1", "about": "“PHARMACEUTICAL COMPOSITION CONTAINING PYRROLOQUINOLINE QUINONE TRILITHIUM SALT NONAHYDRATE COMPOUND, CAPSULE, AND PREPARATION METHOD THEREFOR” (SHANGHAI RAISING PHARMACEUTICAL CO., LTD, priority 2020, published 2024)", "origin": "cited, not measured here", "conditions": "crystalline nonahydrate API", "note": "Counter-ions that a name gives are not always drawn.", "data": [{"smiles": "O=C(O)c1cc(C(=O)O)c2c(n1)C(=O)C(=O)c1cc(C(=O)O)[nH]c1-2", "note": "[4,5-dioxo-4,5-dihydro-1H-pyrrolo[2,3-f]quinoline-2,7,9-tricarboxylic acid lithium salt nonahydrate compound]", "values": [{"measurement": "temperature above which water is rapidly and irreversibly lost", "result": "higher than 60 °C"}]}]}
